Patent publication US12084456B2, “Isocarbostyril alkaloids and functionalization thereof” (The Board of Trustees of the University of Illinois, priority 2018, dated 2024)
≈ marks a conversion by molar mass, not a printed value. Read-outs that look alike come from different tables or passages of the source.

Columns and labels:
[1] = test system: HCT116 cells; assay: Cell viability assay (Alamar Blue, 72 h), HCT116; assay type: cell-based, human; conditions: for IC50: read-out: Activity data for compounds: HCT116
[2] = test system: A549 cells; conditions: for anticancer activity / cytotoxicity in words: human lung and colon cancer cell lines (A549 and HCT116); for IC50: read-out: Activity data for compounds: A549
[3] = Mouse liver microsome assay; assay type: in vitro ADME; conditions: mouse liver microsomes, 3 h, percentage remaining
Procedure: A mixture of PBS (pH 7.4), NADPH regenerating system solution A (Corning Life Sciences), and NADPH regenerating system solution B (Corning Life Sciences) was incubated at 37° C. in a shaking incubator for 5 min. Next, compound was added in DMSO (final concentration 50 μM, 0.5% DMSO) before ice-cold mouse liver microsomes (Thermo Fisher, male CD-1 mice, pooled) were added (final protein concentration of 1 mg/mL). An aliquot was immediately removed, quenched with an equal volume of 100 μM internal standard in ice-cold acetonitrile, and centrifuged at 13,000 rcf for 3 min. The supernatant was diluted 1:5 in ddH2O and analyzed by LC-MS. The reactions were incubated at 37° C. in a shaking incubator for 3 h. A second aliquot was removed, quenched and diluted as before and analyzed by LC-MS. The ratio of the areas of analyte:internal standard at 3 hours was compared to the ratio at t0 to determine the percentage of compound remaining. Analysis was performed using a Kinetex® Evo C-18 50 mm column running a gradient from 3%→95% MeCN in water over 9 minutes at 0.4 mL/min. Internal standard=(+)-pancratistatin tetaacetate S4.

[4] = Solubility assay (shake-flask method); assay type: physicochemical; conditions: for solubility at 24 h: thermodynamic from solid, water, stirred 24 hours, shake-flask, LCMS, read-out: aq. Solubility; for increased solubility when compared to natural counterpart: 47 vs narciclasine, 52 vs pancratistatin
Procedure: A calibration was made for each compound by diluting a 1 mM DMSO solution to 10, 25, 50, 75, and 100 μM and then measuring their relative UV absorbance by LC-MS using a Kinetex© Evo C-18 50 mm column running a gradient from 5%→90% MeCN in water over 4 minutes at 0.4 mL/min.
The aqueous solubility of each compound was measured using the shake-flask method. 1.0 mg of compound was diluted to 40 mM with water then stirred for 24 hours. Each solution was then filtered, diluted 10-fold, and analyzed by LCMS. The relative UV absorbance of each compound was then compared to its calibration curve to quantify its aqueous solubility.

[5] = HCT116 human colon cancer cells, 72 h, Alamar Blue
[6] = A549 human lung cancer cells, 72 h, Alamar Blue
[7] = HCT-116, HCT116 human colon cancer cells, 72 h, Alamar Blue

| IC50 [2, 6] | IC50 [1, 7] | Structure (SMILES) | anticancer activity / cytotoxicity in words [2] | IC50 ([1]; Homo sapiens, HCT-116, 72 h) | IC50 [2] | further results |
| --- | --- | --- | --- | --- | --- | --- |
| – | – | O=C1N[C@H]2[C@H](O)[C@H](O)[C@@H](O)[C@H](O)[C@@H]2c2cc3c(cc21)OCO3 [compound 1, (+)-7-deoxypancratistatin, reference compound] | – | 1.5 µM | 2.9 µM | – |
| – | – | O=C1N[C@H]2[C@H](O)[C@H](O)[C@@H](O)[C@H](O)[C@@H]2c2cc3c(c(O)c21)OCO3 [compound 2, (+)-pancratistatin, reference compound] | – | 0.44 µM | 0.75 µM | solubility at 24 h [4]: 560 ± 70 µg/mL (≈ 1.72 mM) |
| – | – | C=CCc1c2c(cc3c1C(=O)N[C@@H]1C3=C[C@H](O)[C@@H](O)[C@H]1O)OCO2 [compound 38, 7-allyl lycoricidine] | – | > 100 µM | > 100 µM | – |
| – | – | O=C1N[C@@H]2C(=C[C@H](O)[C@@H](O)[C@H]2O)c2cc3c(c(C(=O)c4ccccc4)c21)OCO3 [compound 39, 7-oxophenyl lycoricidine] | – | 35 µM | 44 µM | – |
| – | – | COCc1c2c(cc3c1C(=O)N[C@@H]1C3=C[C@H](O)[C@@H](O)[C@H]1O)OCO2 [compound 40, 7-methoxymethyl lycoricidine] | – | 50 µM | 48 µM | – |
| – | – | O=C1N[C@@H]2C(=C[C@H](O)[C@@H](O)[C@H]2O)c2cc3c(c(CO)c21)OCO3 [compound 41, 7-hydroxymethyl lycoricidine] | less potent | > 100 µM | > 100 µM | – |
| – | – | COC(=O)c1c2c(cc3c1C(=O)N[C@@H]1C3=C[C@H](O)[C@@H](O)[C@H]1O)OCO2 [compound 42, 7-carboxymethyl lycoricidine] | – | 29 µM | 39 µM | – |
| 74 µM | 80 µM | CCOC(=O)Cc1c2c(cc3c1C(=O)N[C@@H]1C3=C[C@H](O)[C@@H](O)[C@H]1O)OCO2 [compound 44, ethyl 2-(7-lycoricidinyl)acetate] | – | – | – | – |
| – | – | O=C(O)Cc1c2c(cc3c1C(=O)N[C@@H]1C3=C[C@H](O)[C@@H](O)[C@H]1O)OCO2 [compound 45, 2-(7-lycoricidinyl)acetic acid] | – | 70 µM | 89 µM | – |
| – | – | N#Cc1c2c(cc3c1C(=O)N[C@@H]1C3=C[C@H](O)[C@@H](O)[C@H]1O)OCO2 [compound 46, 7-cyanolycoricidine] | – | 0.48 µM | 1.2 µM | activity compared to lycoricidine (3) in HCT116 cells [1]: increased activity when compared to lycoricidine |
| – | – | Nc1c2c(cc3c1C(=O)N[C@@H]1C3=C[C@H](O)[C@@H](O)[C@H]1O)OCO2 [compound 47, 7-aminolycoricidine] | – | 0.39 µM | 0.38 µM | increased solubility when compared to natural counterpart [4]: 11 fold; solubility at 24 h [4]: 3740 ± 200 µg/mL (≈ 12.2 mM) |
| 28 µM | 12 µM | CNc1c2c(cc3c1C(=O)N[C@@H]1C3=C[C@H](O)[C@@H](O)[C@H]1O)OCO2 [compound 48, N-methyl-7-aminolycoricidine] | did not show significant cytotoxicity | – | – | – |
| > 100 µM | > 100 µM | CC(=O)Nc1c2c(cc3c1C(=O)N[C@@H]1C3=C[C@H](O)[C@@H](O)[C@H]1O)OCO2 [compound 49, 7-acetamidelycoricidine] | did not show significant cytotoxicity | – | – | – |
| > 100 µM | > 100 µM | O=C1N[C@@H]2C(=C[C@H](O)[C@@H](O)[C@H]2O)c2cc3c(c(N4CCCC4)c21)OCO3 [compound 50] | did not show significant cytotoxicity | – | – | – |
| 39 µM | 33 µM | O=C1N[C@@H]2C(=C[C@H](O)[C@@H](O)[C@H]2O)c2cc3c(c(N4CCOCC4)c21)OCO3 [compound 51, 7-(4-morpholinyl)lycoricidine] | did not show significant cytotoxicity | – | – | – |
| – | – | Nc1c2c(cc3c1C(=O)N[C@H]1[C@H](O)[C@H](O)[C@@H](O)[C@H](O)[C@H]31)OCO2 [compound 52, 7-aminopancratistatin] | – | 3.4 µM | 9 µM | increased solubility when compared to natural counterpart [4]: 6 fold; solubility at 24 h [4]: 3460 ± 140 µg/mL (≈ 10.7 mM) |
| 0.22 µM | 0.147 µM | COc1cccc2c1C(=O)c1c(O)c3c(c(O)c1C2=O)C[C@@](O)(C(=O)CO)C[C@@H]3O[C@H]1C[C@H](N)[C@H](O)[C@H](C)O1 [doxorubicin, reference compound] | – | – | – | – |

| Structure (SMILES) | IC50 [2, 6] | IC50 [1, 7] | anticancer activity / cytotoxicity in words [2] | IC50 ([1]; Homo sapiens, HCT-116, 72 h) | IC50 [2] | further results |
| --- | --- | --- | --- | --- | --- | --- |
| [2H]C1([2H])Oc2cc3c(c(O)c2O1)C(=O)N[C@@H]1C3=C[C@H](O)[C@@H](O)[C@H]1O [4-d2, (+)-narciclasine 4-d2] | 0.07 µM | – | equipotent activity | – | – | IC50 [1, 5]: 0.04 µM; greater metabolic stability when compared to narciclasine (4) [3]: ~30% |
| [2H]C1=C2c3cc4c(c(O)c3C(=O)N[C@@]2([2H])[C@]([2H])(O)[C@]([2H])(O)[C@@]1([2H])O)OCO4 [4-d5, (+)-narciclasine 4-d5] | 0.066 µM | – | equipotent activity | – | – | IC50 [1, 5]: 0.043 µM; greater metabolic stability when compared to narciclasine (4) [3]: ~30% |
| O=C1N[C@@H]2C(=C[C@H](O)[C@@H](O)[C@H]2O)c2cc3c(cc21)OCO3 [compound 3, (+)-lycoricidine, reference compound] | 0.73 µM | 0.54 µM | – | – | – | – |
| O=C1N[C@@H]2C(=C[C@H](O)[C@@H](O)[C@H]2O)c2cc3c(c(O)c21)OCO3 [compound 4, (+)-narciclasine, reference compound] | 0.056 µM | – | – | – | – | IC50 [1, 5]: 0.0324 µM |
| O=C1N[C@@H]2C(=C[C@H](O)[C@@H](O)[C@H]2O)c2cc3c(c(C(=O)O)c21)OCO3 [compound 43, lycoricidine-7-carboxylic acid] | > 100 µM | – | – | 80 µM | – | – |
